Results: the supplement of paper PMC10307832

Assays:
Assay in all cases: relative viability (nuclei count vs DMSO), 5 days (fraction); higher = more cells survive
[1] = compound: COc1cc2nc(N3CCCN(C)CC3)nc(NC3CCN(Cc4ccccc4)CC3)c2cc1OC + COc1cc2c(Oc3ccc(NC(=O)C4(C(=O)Nc5ccc(F)cc5)CC4)cc3F)ccnc2cc1OCCCN1CCOCC1 [Foretinib] (partner 0.25 µM)
How it was run: (§1)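 A single step with final 0.05% Triton X-100, 1% formaldehyde and 1 ug/ml Hoechst fixed the cells and stained nuclei 5 days after treatment. Lung cancer cell lines in 1536-well plates had been treated by pin tool the day after seeding with one drug alone or a fixed anchor-drug dose plus five library-drug doses (not always all listed) in √10 steps, and nuclei were counted on 4× images. Relative viability is the ratio of nuclei in treated wells to nuclei in vehicle wells, taken as the median of duplicate plates.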

[2] = compound: COc1cc2nc(N3CCCN(C)CC3)nc(NC3CCN(Cc4ccccc4)CC3)c2cc1OC + Cc1nc(NC(=O)N2CCC[C@H]2C(N)=O)sc1-c1ccnc(C(C)(C)C(F)(F)F)c1 [Alpelisib] (partner 2 µM)
How it was run: as §1

[3] = compound: COc1cc2nc(N3CCCN(C)CC3)nc(NC3CCN(Cc4ccccc4)CC3)c2cc1OC + O=C(CCCCCCC(=O)Nc1ccccc1)NO [Vorinostat] (partner 1 µM)
How it was run: as §1

[4] = compound: Cc1cc([C@@H](C)Nc2ccccc2C(=O)O)c2nc(N3CCOCC3)cc(=O)n2c1 [AZD6482] + O=C(CCCCCCC(=O)Nc1ccccc1)NO [Vorinostat] (partner 1 µM)
How it was run: as §1

With UMC-11 the relative viability ([1]; first compound 0.2 µM) was 0.943, the relative viability ([1]; first compound 0.6325 µM) was 1.05 and the relative viability ([1]; first compound 2 µM) was 1.15. The relative viability ([1]; first compound 6.325 µM) was 0.826, the relative viability ([2]; first compound 0.2 µM) was 0.953 and the relative viability ([2]; first compound 0.6325 µM) was 0.973. For the same cell line, the relative viability ([2]; first compound 2 µM) was 1.15, the relative viability ([2]; first compound 6.325 µM) was 1.01 and the relative viability ([3]; first compound 0.2 µM) was 0.361. It also gave a relative viability ([3]; first compound 0.6325 µM) of 0.453, a relative viability ([3]; first compound 2 µM) of 0.431 and a relative viability ([3]; first compound 6.325 µM) of 0.317. The relative viability ([4]; first compound 0.08 µM) was 0.326, the relative viability ([4]; first compound 0.253 µM) was 0.347 and the relative viability ([4]; first compound 0.8 µM) was 0.384. It also gave a relative viability ([4]; first compound 2.53 µM) of 0.341 and a relative viability ([4]; first compound 8 µM) of 0.331.
